Measured values taken from patent US12653860B2, “Compositions and methods for editing beta-globin for treatment of hemaglobinopathies” (Vertex Pharmaceuticals Incorporated, priority 2019, dated 2026).

Experiments:
cKit mice = assay: Lineage analysis of engrafted human CD45-expressing cells in mouse bone marrow; assay type: in vivo
Protocol: Presence of human hematopoietic cells was measured by flow cytometry in mouse blood or bone marrow samples. Cells were gated on singlet, live cells. Mouse and human CD45-expressing hematopoietic cells were distinguished by antibodies targeting mouse or human CD45. Engraftment was measured as percent chimerism which was defined as the quantity of human CD45 positive cells divided by the total number of CD45 positive cells (e.g., human and mouse CD45 expressing cells combined). The lineage of human CD45 positive cells was determined using markers for CD19 (e.g., B cells), CD3 (e.g., T cells), CD33 (e.g., myeloid cells), and CD34 (hematopoietic stem/progenitor cells (HSPCs)).
Shown in FIGS. 18A-18B is lineage analysis of engrafted CD45-expressing human cells in mouse bone marrow samples collected at 16 weeks post administration of LT-HSPCs. The lineage of CD45-expressing human leukocytes was evaluated for unedited LT-HSPCs administered at a dose of 0.01×10^6, 0.05×10^6, 0.1×10^6, or 0.25×10^6 cells (FIG. 18A). The lineage of CD45-expressing human leukocytes was also evaluated for LT-HSPCs edited with AAV+RNP either in the presence or absence of i53 (FIG. 18B).
Shown in FIG. 25 is lineage analysis of engrafted CD45-expressing human cells in mouse bone marrow samples collected at 16 weeks post administration of LT-HSPCs. […]

HBB locus = assay: HDR (E7V) editing in mouse bone marrow 16 weeks post-administration, NGS; assay type: in vivo, mice; details: for levels of gene-editing in the HBB locus in bone marrow: AAV.304, FIG. 26B
Protocol: Maintenance of gene-editing was evaluated in mouse bone marrow collected at 16 weeks post-administration of LT-HSPCs. Incorporation of a sickle mutation (E7V) in the HBB locus was evaluated in DNA isolated from mouse bone marrow samples using the next generation sequencing assay described in Example 4. Shown in FIG. 19 is a comparison of HDR efficiency for LT-HSPCs edited either with or without i53. LT-HSPCs were electroporated with Cas9/gRNA and treated with AAV. […] LT-HSPCs edited in the presence of i53 had 1.8-fold higher HDR frequency in the bone marrow compared to cells edited with AAV+RNP alone.
Maintenance of gene-editing was evaluated in mouse bone marrow collected at 16 weeks post-administration of LT-HSPCs. Incorporation of a sickle mutation (E7V) in the HBB locus was evaluated in DNA isolated from mouse bone marrow samples using the next generation sequencing assay described in Example 4. […] LT-HSPCs were electroporated with Cas9/gRNA and treated with AAV prior to electroporation or following electroporation. Incorporation of the gene-edit in bone marrow samples was similar for LT-HSPCs edited with RNP and AAV given either pre-EP or post-EP. Additionally, incorporation of the gene edit in the HBB locus by HDR was compared for LT-HSPCs edited in the presence of i53 or Nu7441 (FIG. 26B).

[1] = test system: GFP gene encoded in the AAVS1 locus of HEK293 T cells; assay: GFP to BFP reporter assay of HDR repair (BFP fluorescence); assay type: cell-based; details: four ssODNs
Protocol: (§1) The effect of DNA PK inhibition by Nu7441 correction of a DSB by the NHEJ pathway (e.g., introduce an indel at the DSB site) or HDR pathway (e.g., introduce a gene mutation encoded by a homology donor at the DSB site) was assessed using the reporter system described in Example 1. In this case gene-editing was evaluated in HEK293 T cells expressing GFP in the AAVS1 locus. To introduce a gene edit that converts GFP to BFP, cells were electroporated with ribonucleoprotein (RNP) comprised of Cas9 and gRNA1 (GFP target sequence identified by SEQ ID NO: 9; sgRNA spacer sequence identified by SEQ ID NO: 10) or gRNA2 (GFP target sequence identified by SEQ ID NO: 11; sgRNA spacer identified by SEQ ID NO: 12) that targets the GFP gene encoded in the AAVS1 locus. The cells were also transfected with ssODNs that encoded the gene correction necessary to convert GFP to BFP and homology arms complimentary to the sequence upstream and downstream of the target gene cut site. The efficiency of HDR repair was determined by measuring the level of cell BFP fluorescence. The efficiency of cutting (indel information) was monitored by TIDE analysis.
Shown in FIGS. 2A-2B is a comparison of HDR editing efficiency for cells treated with Nu7441, SCR7, or RS-1. Shown in FIG. 2A are cells were electroporated with RNP comprising Cas9 and gRNA1 (GFP target sequence shown in SEQ ID NO: 9; sgRNA spacer sequence identified by SEQ ID NO: 10). 2×10^5 cells were edited with 1 μM Cas9 and 1.5 μM gRNA1. The cells were transfected with four different ssODNs. These included ssODN 1067 (SEQ ID NO: 29) and ssODN 1069 (SEQ ID NO: 31) that are complimentary to the DNA strand containing the PAM sequence and ssODN 1068 (SEQ ID NO: 30) and ssODN 1070 (SEQ ID NO: 32) that are complimentary to the DNA strand not containing the PAM sequence. Cells were edited with 100 μM ssODN. A concentrated stock solution of each inhibitor was prepared in DMSO and diluted to a final concentration of 2.5 μM Nu7441, 1.25 μM SCR7, or 10 μM RS-1. HDR efficiency was compared relative to treatment with DMSO alone or to treatment with RNP-only.
Shown in FIG. 2B are cells were electroporated with RNP comprising Cas9 and gRNA2 (GFP target sequence shown in SEQ ID NO: 11; sgRNA spacer sequence shown in SEQ ID NO: 12). The cells were transfected with four different ssODNs. These included ssODN 1061 (SEQ ID NO: 33) and ssODN 1063 (SEQ ID NO: 35) that are complimentary to the DNA strand containing the PAM sequence and ssODN 1062 (SEQ ID NO: 34) and ssODN 1064 (SEQ ID NO: 36) that are complimentary to the DNA strand not containing the PAM sequence.

[2] = test system: GFP gene encoded in the AAVS1 locus of HEK293 T cells; assay: Indel formation by TIDE analysis, GFP to BFP edit; assay type: cell-based; details: regardless of ssODN or gRNA; vs DMSO control; FIGS. 2C-2D
Protocol: as §1
Shown in FIGS. 2C-2D is a measure of indel formation performed by TIDE analysis for the same edits that are described for FIGS. 2A-2B. […] Thus, the DNA PK inhibitor Nu7441 achieves reduced repair of a DSB by the NHEJ pathway when a homology donor is provided.

[3] = gRNA1, 2.5 μM Nu7441, 1.25 μM SCR7 or 10 μM RS-1, vs DMSO alone, FIG. 2A

Row | Compound | lineage distribution of engrafted cells (cKit mice; bone marrow 16 weeks, edited vs un-edited LT-HSPCs, FIG. 18B) | levels of gene-editing in the HBB locus in bone marrow (HBB locus) | HDR frequency in bone marrow, fold higher than AAV+RNP alone (HBB locus; AAV.307, FIG. 19) | incorporation of the gene edit by HDR in bone marrow (HBB locus; AAV.307, i53, FIG. 19) | HDR efficiency [1, 3] | HDR efficiency ([1]; gRNA2, 2.5 μM Nu7441) | indel formation at the DSB site [2] | lineage of human leukocytes in bone marrow (cKit mice; 16 weeks, compared to treatment with i53, FIG. 25)
1 | i53: polypeptide inhibitor of 53BP1 (SEQ ID NO: 70), delivered as mRNA (ORF SEQ ID NO: 69) | no gross changes in lineage distribution | substantially higher than AAV+RNP alone | 1.8 fold | 65% |  |  |  | 
2 | O=c1cc(N2CCOCC2)oc2c(-c3cccc4c3sc3ccccc34)cccc12 [Nu7441] |  | comparable to AAV+RNP alone |  |  | improved HDR efficiency | improved HDR efficiency | decreased indel formation | greater proportion of CD34-expressing cells and myeloid cells
3 | O=c1[nH]c(=S)[nH]c(N=Cc2ccccc2)c1N=Cc1ccccc1 [SCR7] |  |  |  |  | no improvement in HDR efficiency |  | reduction compared to a DMSO control | 
4 | O=C(Nc1ccc(Br)cc1)c1ccc(Br)c(S(=O)(=O)NCc2ccccc2)c1 [RS-1] |  |  |  |  | no improvement in HDR efficiency |  | reduction compared to a DMSO control | 
